The values that follow come from patent US10669272B2, “Substituted naphthyridinone compounds useful as T cell activators” (BRISTOL-MYERS SQUIBB COMPANY, priority 2018, dated 2020).

One test deals with T1, human DGKα (Homo sapiens, UniProt P23743).
T1 construct: TVMV protease cleavage site (C); Hexa-His (C); made in house; host or cells: Sf9 insect cells (baculovirus, Bac-to-Bac)
Description: DGKα LIPGLO assay (extruded liposome substrate), in vitro DGK inhibition. The class given is biochemical. To be noted: liposome (LIPGLO) assay; read-out: DGKa LIPGLO IC50.

A further test concerns the target T2, human DGKζ (Homo sapiens, UniProt Q13574).
T2 construct: TVMV protease cleavage site (C); Hexa-His (C); made in house; host or cells: Sf9 insect cells (baculovirus, Bac-to-Bac)
Put plainly: DGKζ LIPGLO assay (extruded liposome substrate), in vitro DGK inhibition. The class given is biochemical. To be noted: liposome (LIPGLO) assay; read-out: DGKz LIPGLO IC50.

In the next test the test system is Human venous whole blood. Put plainly: Human whole blood IFN-γ assay.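 Also: blood from healthy donors exposed to compound for 1 h before stimulation with anti-CD3 and anti-CD28 at 1 µg/mL each, IFN-γ quantified in supernatant by AlphaLISA.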 The following applies: human whole blood, normalized to 3 μM reference compound with anti-CD3 plus anti-CD28 as 100% activation, read-out: INFg Whole Blood Normalized Agonist EC50. It counts as cell-based.

Like-named read-outs stand apart in the source and are kept apart here.

T1 sequence (P23743 with tags, fused parts or gaps): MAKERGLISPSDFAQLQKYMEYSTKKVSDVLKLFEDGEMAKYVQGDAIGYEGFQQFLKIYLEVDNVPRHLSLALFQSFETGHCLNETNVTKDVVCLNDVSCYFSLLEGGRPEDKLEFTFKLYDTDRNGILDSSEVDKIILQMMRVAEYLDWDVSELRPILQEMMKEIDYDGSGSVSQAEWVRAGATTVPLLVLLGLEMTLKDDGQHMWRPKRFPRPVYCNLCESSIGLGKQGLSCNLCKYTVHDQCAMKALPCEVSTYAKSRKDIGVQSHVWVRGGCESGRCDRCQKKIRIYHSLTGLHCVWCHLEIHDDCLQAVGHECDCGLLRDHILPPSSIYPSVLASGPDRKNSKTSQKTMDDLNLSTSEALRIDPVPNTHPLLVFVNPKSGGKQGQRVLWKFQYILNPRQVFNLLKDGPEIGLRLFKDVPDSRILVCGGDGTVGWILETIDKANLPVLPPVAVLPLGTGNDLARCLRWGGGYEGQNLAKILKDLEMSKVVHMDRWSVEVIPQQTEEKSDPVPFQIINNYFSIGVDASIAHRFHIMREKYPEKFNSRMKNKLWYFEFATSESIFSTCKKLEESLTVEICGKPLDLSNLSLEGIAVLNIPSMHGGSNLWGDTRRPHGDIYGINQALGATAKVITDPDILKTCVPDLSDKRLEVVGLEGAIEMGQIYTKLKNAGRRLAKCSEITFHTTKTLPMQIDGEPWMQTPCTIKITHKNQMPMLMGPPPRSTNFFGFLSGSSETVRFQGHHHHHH
T2 sequence (Q13574 with tags, fused parts or gaps isoform Q13574-4): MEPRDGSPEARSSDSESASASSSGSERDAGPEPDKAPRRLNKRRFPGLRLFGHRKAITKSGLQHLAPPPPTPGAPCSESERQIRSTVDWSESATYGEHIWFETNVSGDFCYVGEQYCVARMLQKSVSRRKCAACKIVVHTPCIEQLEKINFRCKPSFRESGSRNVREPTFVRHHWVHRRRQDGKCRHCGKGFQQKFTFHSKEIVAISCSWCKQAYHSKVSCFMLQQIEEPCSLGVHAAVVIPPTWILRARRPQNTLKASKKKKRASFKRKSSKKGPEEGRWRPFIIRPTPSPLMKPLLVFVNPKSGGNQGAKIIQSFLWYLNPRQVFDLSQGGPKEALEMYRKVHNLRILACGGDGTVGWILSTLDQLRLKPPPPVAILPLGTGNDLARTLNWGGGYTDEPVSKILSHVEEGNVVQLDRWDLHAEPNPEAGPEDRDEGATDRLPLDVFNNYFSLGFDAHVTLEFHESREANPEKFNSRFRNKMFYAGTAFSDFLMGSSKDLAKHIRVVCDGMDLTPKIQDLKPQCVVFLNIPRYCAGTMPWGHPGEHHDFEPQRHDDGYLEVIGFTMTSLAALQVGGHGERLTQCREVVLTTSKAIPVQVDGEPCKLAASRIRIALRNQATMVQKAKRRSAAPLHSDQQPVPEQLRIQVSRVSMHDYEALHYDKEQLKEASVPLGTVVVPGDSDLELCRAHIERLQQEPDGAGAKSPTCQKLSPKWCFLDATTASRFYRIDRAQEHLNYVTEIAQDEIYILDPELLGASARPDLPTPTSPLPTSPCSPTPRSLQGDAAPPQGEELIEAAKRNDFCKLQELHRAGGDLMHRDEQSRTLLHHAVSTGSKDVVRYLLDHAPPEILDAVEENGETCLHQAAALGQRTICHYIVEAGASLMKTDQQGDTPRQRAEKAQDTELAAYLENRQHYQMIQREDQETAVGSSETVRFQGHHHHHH
Description for Human venous whole blood: Human Whole Blood IFN-γ Assay
Human venous whole blood (22.5 μL per well), obtained from healthy donors, was pre-treated with compounds for one hour at 37° C. in a humidified 95% air/5% CO2 incubator. The blood was stimulated with 2.5 μL anti-human CD3 and anti-CD28 mAb at a final concentration of 1 μg/mL each for 24 hours at 37° C. IFN-γ in the supernatants was measured using AlphLISA kit (Cat # AL217).

For the compound `Cc1ccc(C(c2ccc(C#N)cc2)N2C[C@H](C)N(c3cc(=O)n(C)c4ccc(C#N)nc34)C[C@H]2C)nc1` (stereo partly drawn) [Example 453, 8-((2S,5R)-4-((4-cyanophenyl)(5-methylpyridin-2-yl)methyl)-2,5-dimethylpiperazin-1-yl)-5-methyl-6-oxo-5,6-dihydro-1,5-naphthyridine-2-carbonitrile], the IC50 on human DGKα came out at 310 nM; at human DGKζ, 1000 nM. In the test with Human venous whole blood, the EC50 is 2800 nM.
With `C[C@@H]1CN(c2cc(=O)n(C)c3ccc(C#N)nc23)[C@@H](C)CN1C(c1ccc(F)cc1)c1cc(F)ccn1` (stereo partly drawn) [Example 472, 8-((2S,5R)-4-((4-fluorophenyl)(4-fluoropyridin-2-yl)methyl)-2,5-dimethylpiperazin-1-yl)-5-methyl-6-oxo-5,6-dihydro-1,5-naphthyridine-2-carbonitrile], the figures for the IC50 on human DGKα and at human DGKζ were 1300 nM and 2900 nM, respectively. In the test with Human venous whole blood (Homo sapiens, 24 h), the EC50 amounted to 1300 nM.
As for `C[C@@H]1CN(c2cc(=O)n(C)c3ccc(C#N)nc23)[C@@H](C)CN1Cc1cccc2c1cnn2C` [Example 475, 8-((2S,5R)-2,5-dimethyl-4-((1-methyl-1H-indazol-4-yl)methyl)piperazin-1-yl)-5-methyl-6-oxo-5,6-dihydro-1,5-naphthyridine-2-carbonitrile], the IC50 is 16000 nM at human DGKα and 2000 nM at human DGKζ. Besides, in the test on Human venous whole blood (Homo sapiens, 24 h), the EC50 is 20000 nM.
Consider `C[C@@H]1CN(c2cc(=O)n(C)c3ccc(C#N)nc23)[C@@H](C)CN1Cc1ccc(C2(C#N)CC2)cc1` [Example 567], for which the IC50 at human DGKα was 2800 nM; on human DGKζ it was 18000 nM. For the same compound, in the test with Human venous whole blood (Homo sapiens, 24 h), the EC50 was 20000 nM.
For the compound `C[C@@H]1CN(c2cc(=O)n(C)c3ccc(C#N)nc23)[C@@H](C)CN1Cc1ccc(OC(F)(F)F)cc1C#N` [Example 581], the figures for the IC50 at human DGKα and at human DGKζ were 1300 nM and 6700 nM, respectively. The concentration for a half-maximal effect (EC50) with Human venous whole blood (Homo sapiens, 24 h) amounted to 2700 nM.
The corresponding values for `C[C@@H]1CN(c2cc(=O)n(C)c3ccc(C#N)nc23)[C@@H](C)CN1Cc1ccc(OC(F)(F)F)c(C#N)c1` [Example 584] are 5900 nM, 7900 nM and 3400 nM.
With `C[C@@H]1CN(c2cc(=O)n(C)c3ccc(C#N)nc23)[C@@H](C)CN1Cc1ccc(F)c(OC(F)(F)F)c1` [Example 585], the IC50 was determined as 9300 nM at human DGKα and 1500 nM on human DGKζ. Further, the EC50 in the test with Human venous whole blood (Homo sapiens, 24 h) was 2100 nM.
The corresponding values for `C[C@@H]1CN(c2cc(=O)n(C)c3ccc(C#N)nc23)[C@@H](C)CN1Cc1cccc(OC(F)(F)F)c1` [Example 586] are 7300 nM, 5600 nM and 2300 nM.
The corresponding values for `C[C@@H]1CN(c2cc(=O)n(C)c3ccc(C#N)nc23)[C@@H](C)CN1Cc1ccc(C(C)(C)C)cc1` [Example 587] are 4600 nM, 6600 nM and 2300 nM.
For the compound `C[C@@H]1CN(c2cc(=O)n(C)c3ccc(C#N)nc23)[C@@H](C)CN1Cc1ccc(OC(F)F)cc1F` [Example 590], the IC50 on human DGKα amounted to 330 nM; at human DGKζ it was 5100 nM. Besides, the EC50 with Human venous whole blood (Homo sapiens, 24 h) was 1900 nM.
The corresponding values for `C[C@@H]1CN(c2cc(=O)n(C)c3ccc(C#N)nc23)[C@@H](C)CN1Cc1ccc(OC(F)(F)F)cc1Br` [Example 593] are 3100 nM, 5900 nM and 1200 nM.
The corresponding values for `CCn1cc(F)c2c(CN3C[C@H](C)N(c4cc(=O)n(C)c5ccc(C#N)nc45)C[C@H]3C)cccc21` [Example 596] are 8900 nM, 580 nM and 15000 nM.
Take `COc1ccc(OC(F)(F)F)cc1CN1C[C@H](C)N(c2cc(=O)n(C)c3ccc(C#N)nc23)C[C@H]1C` [Example 601]: the IC50 is 2100 nM on human DGKα and 7700 nM at human DGKζ. In addition, the EC50 with Human venous whole blood (Homo sapiens, 24 h) turned out to be 3300 nM.
For `CC(C)c1ccc(CN2C[C@H](C)N(c3cc(=O)n(C)c4ccc(C#N)nc34)C[C@H]2C)cc1` [Example 602] the same measures were 850 nM, 3700 nM and 1100 nM.
In the case of `C[C@@H]1CN(c2cc(=O)n(C)c3ccc(C#N)nc23)[C@@H](C)CN1Cc1ccc(Cl)cc1` [Example 604], the IC50 on human DGKα amounted to 310 nM; at human DGKζ, 2000 nM. For the same compound, the EC50 in the test with Human venous whole blood (Homo sapiens, 24 h) turned out to be 4800 nM.
As to `C[C@@H]1CN(c2cc(=O)n(C)c3ccc(C#N)nc23)[C@@H](C)CN1Cc1cccc2c1ccn2C` [Example 606], the IC50 is 5200 nM on human DGKα and 66 nM on human DGKζ. Also, in the test on Human venous whole blood (Homo sapiens, 24 h), the EC50 was 1100 nM.
For `C[C@@H]1CN(c2cc(=O)n(C)c3ccc(C#N)nc23)[C@@H](C)CN1Cc1ccc(OC(F)(F)F)cc1Cl` [Example 607] the same measures were 1900 nM, 7600 nM and 2000 nM.
As for `C[C@@H]1CN(c2cc(=O)n(C)c3ccc(C#N)nc23)[C@@H](C)CN1Cc1ccc(OC(F)(F)F)cc1` [Example 609], the IC50 amounted to 21 nM on human DGKα and 13000 nM on human DGKζ. Also, in the test with Human venous whole blood (Homo sapiens, 24 h), the EC50 is 2200 nM.
The corresponding values for `C[C@@H]1CN(c2cc(=O)n(C)c3ccc(C#N)nc23)[C@@H](C)CN1Cc1ccc(OC(F)(F)F)c(F)c1` [Example 610] are 690 nM, 13000 nM and 1800 nM.
As to `C[C@@H]1CN(c2cc(=O)n(C)c3ccc(C#N)nc23)[C@@H](C)CN1Cc1ccc(OC(F)(F)F)c(Cl)c1` [Example 611], the figures for the IC50 on human DGKα and at human DGKζ were 6800 nM and 21000 nM, respectively. Further, the EC50 with Human venous whole blood (Homo sapiens, 24 h) is 3700 nM.
Take `C[C@@H]1CN(c2cc(=O)n(C)c3ccc(C#N)nc23)[C@@H](C)CN1CC1CCOCC1` [Example 623]: the IC50 is 130000 nM at human DGKα and above 250000 nM at human DGKζ. The EC50 in the test on Human venous whole blood (Homo sapiens, 24 h) turned out to be 20000 nM.
With `C[C@@H]1CN(c2cc(=O)n(C)c3ccc(C#N)nc23)[C@@H](C)CN1C(c1ccc(O)cc1F)C(F)(F)F` (stereo partly drawn) [Example 625], the IC50 is 230 nM at human DGKα and 2400 nM at human DGKζ. Moreover, in the test on Human venous whole blood (Homo sapiens, 24 h), the EC50 worked out at 700 nM.
On to `C[C@@H]1CN(c2cc(=O)n(C)c3ccc(C#N)nc23)[C@@H](C)CN1C(c1ccc(O)cc1)C(F)(F)F` (stereo partly drawn) [Example 626], for which the IC50 was found to be 1700 nM on human DGKα and 7900 nM on human DGKζ. Besides, in the test with Human venous whole blood (Homo sapiens, 24 h), the EC50 came to 2500 nM.
For `C[C@@H]1CN(c2cc(=O)n(C)c3ccc(C#N)nc23)[C@@H](C)CN1Cc1ccc(OC(F)(F)F)c(Br)c1` [Example 629] the same measures were 11000 nM, 18000 nM and 4200 nM.
Turning to `C[C@@H]1CN(c2cc(=O)n(C)c3ccc(C#N)nc23)[C@@H](C)CN1Cc1cccc2c1OCCN2` [Example 634], the results for the IC50 at human DGKα and on human DGKζ were 4300 nM and 9000 nM, respectively. Moreover, in the test with Human venous whole blood (Homo sapiens, 24 h), the EC50 is 2900 nM.
On to `COc1ccc(C(c2ccc(F)cc2)N2C[C@H](C)N(c3cc(=O)n(C)c4ccc(C#N)nc34)C[C@H]2C)cc1` (stereo partly drawn) [Example 658], for which the IC50 at human DGKα came to 690 nM; on human DGKζ, 590 nM. Also, the EC50 in the test on Human venous whole blood is 1500 nM.
The corresponding values for `COc1ccc(C(c2ccc(F)cc2)N2C[C@H](C)N(c3cc(=O)n(C)c4ccc(C#N)nc34)C[C@H]2C)cc1` (stereo partly drawn) [Example 659] are 1400 nM, 310 nM and 17000 nM.
Take `C[C@@H]1CN(c2cc(=O)n(C)c3ccc(C#N)nc23)[C@@H](C)CN1C(c1ccc(F)cc1)c1ncccn1` (stereo partly drawn) [Example 676]: the IC50 on human DGKα came to 62 nM; on human DGKζ, 5400 nM. The EC50 in the test with Human venous whole blood (Homo sapiens, 24 h) was 1800 nM.

The IC50 is the concentration at which inhibition is half-maximal. In general, EC50 refers to the concentration giving half of the maximal effect.
